Assay results from ChEMBL document CHEMBL1201862, “PubChem BioAssay data set” (2004).
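All cell lines were grown in 96-well plates and treated with compound for 48 hours. At the GI50, growth is halved.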 Active and inactive are the calls of the source. No stated cut-off is given here; in the data, active = GI50 up to about 1.1 µM and inactive = higher.

Assays:
Test in all cases: inhibition of tumour cell growth, NCI panel, 48 h
[1] = system: TK-10
[2] = system: ACHN
[3] = system: SF-295
[4] = system: SNB-75
[5] = system: RPMI-8226
[6] = system: MDA-N
[7] = system: HOP-92
[8] = system: SR
[9] = system: UACC-62
[10] = system: CAKI-1
[11] = system: SW-620
[12] = system: NCI-H522
[13] = system: SNB-19
[14] = system: SN12C
[15] = system: MDA-MB-435
[16] = system: DU-145
[17] = system: IGROV-1
[18] = system: PC-3
[19] = system: HCT-15
[20] = system: OVCAR-3

## N#Cc1c(N)c2c(c(-c3ccccc3)c1-c1ccccc1)C(=O)N(NC(=O)c1ccccc1)C2=O
[1]
  GI50: > 100 µM (inactive)
[2]
  GI50: > 100 µM (inactive)
[3]
  GI50: > 100 µM (inactive)
[4]
  GI50: > 100 µM (inactive)
[5]
  GI50: 31.2 µM (inactive)
[6]
  GI50: 72.6 µM (inactive)
[7]
  GI50: 60.5 µM (inactive)
[8]
  GI50: 44.5 µM (inactive)
[9]
  GI50: 75.9 µM (inactive)
[10]
  GI50: > 100 µM (inactive)
[11]
  GI50: > 100 µM (inactive)
[12]
  GI50: 81.7 µM (inactive)
[13]
  GI50: 58.5 µM (inactive)
[14]
  GI50: > 100 µM (inactive)
[15]
  GI50: 74.3 µM (inactive)
[16]
  GI50: > 100 µM (inactive)
[17]
  GI50: 61.4 µM (inactive)
[18]
  GI50: 65.2 µM (inactive)
[19]
  GI50: > 100 µM
[20]
  GI50: 31 µM (inactive)

## CNC(=O)NC(CCCCNC(=O)OCc1ccccc1)C(=O)OCc1ccccc1 (stereo not given)
[1]
  GI50: 38.3 µM (inactive)
[2]
  GI50: 41.9 µM (inactive)
[3]
  GI50: 60.8 µM (inactive)
[4]
  GI50: 5.69 µM (inactive)
[5]
  GI50: 24.9 µM (inactive)
[6]
  GI50: 19.5 µM (inactive)
[7]
  GI50: 16.6 µM (inactive)
[8]
  GI50: 19.9 µM (inactive)
[9]
  GI50: 16.7 µM (inactive)
[10]
  GI50: 47.6 µM (inactive)
[11]
  GI50: > 97.5 µM (inactive)
[12]
  GI50: 12.6 µM (inactive)
[13]
  GI50: > 100 µM (inactive)
[14]
  GI50: 39.5 µM (inactive)
[15]
  GI50: 19.6 µM (inactive)
[16]
  GI50: > 100 µM (inactive)
[17]
  GI50: > 100 µM (inactive)
[18]
  GI50: 45.1 µM (inactive)
[19]
  GI50: > 96.8 µM
[20]
  GI50: 21.1 µM (inactive)

## O=C(O)/C=C(/C(=O)O)C12CCN3CC4=CCOC5CC(=O)NC1C5C4CC32 (stereo not given)
[1]
  GI50: > 100 µM (inactive)
[2]
  GI50: > 100 µM (inactive)
[3]
  GI50: > 100 µM (inactive)
[4]
  GI50: > 100 µM (inactive)
[5]
  GI50: > 100 µM (inactive)
[6]
  GI50: > 100 µM (inactive)
[7]
  GI50: > 100 µM (inactive)
[8]
  GI50: > 100 µM (inactive)
[9]
  GI50: > 100 µM (inactive)
[10]
  GI50: > 100 µM (inactive)
[11]
  GI50: > 100 µM (inactive)
[12]
  GI50: > 100 µM (inactive)
[13]
  GI50: > 100 µM (inactive)
[14]
  GI50: > 100 µM (inactive)
[15]
  GI50: > 100 µM (inactive)
[16]
  GI50: > 100 µM (inactive)
[17]
  GI50: > 100 µM (inactive)
[18]
  GI50: > 100 µM (inactive)
[19]
  GI50: > 100 µM
[20]
  GI50: > 100 µM (inactive)

## CCO[C@@]12CCC3CC4CC[C@@](OCC)(O1)C4C32 (stereo not given in full)
[1]
  GI50: > 100 µM (inactive)
[2]
  GI50: > 100 µM (inactive)
[3]
  GI50: > 100 µM (inactive)
[4]
  GI50: > 100 µM (inactive)
[5]
  GI50: > 100 µM (inactive)
[6]
  GI50: > 100 µM (inactive)
[7]
  GI50: > 100 µM (inactive)
[8]
  GI50: > 100 µM (inactive)
[9]
  GI50: > 100 µM (inactive)
[10]
  GI50: > 100 µM (inactive)
[11]
  GI50: > 100 µM (inactive)
[12]
  GI50: > 100 µM (inactive)
[13]
  GI50: > 100 µM (inactive)
[14]
  GI50: > 100 µM (inactive)
[15]
  GI50: > 100 µM (inactive)
[16]
  GI50: > 100 µM (inactive)
[17]
  GI50: > 100 µM (inactive)
[18]
  GI50: > 100 µM (inactive)
[19]
  GI50: > 100 µM
[20]
  GI50: > 100 µM (inactive)
